Values belong to the compound of their own block, whether it stands above or below them.
Experiments:
[1] = tested on: Human immunodeficiency virus 1; assay: Antiviral activity against NNRTI resistant HIV1 harboring Leu100IIe mutant infected in human MT4 cells assessed as reduction in virus-induced cytopathic effect measured after 5 days by MTT assay; format: functional, organism-based; settings: Human immunodeficiency virus 1, MT4, 120 h
[2] = tested on: Human immunodeficiency virus 1; assay: Antiviral activity against NNRTI resistant HIV1 harboring Lys103Asn mutant infected in human MT4 cells assessed as reduction in virus-induced cytopathic effect measured after 5 days by MTT assay; format: functional, organism-based; settings: Human immunodeficiency virus 1, MT4, 120 h
[3] = tested on: Human immunodeficiency virus 1; assay: Antiviral activity against NNRTI resistant HIV1 harboring Tyr181Cys mutant infected in human MT4 cells assessed as reduction in virus-induced cytopathic effect measured after 5 days by MTT assay; format: functional, organism-based; settings: Human immunodeficiency virus 1, MT4, 120 h
[4] = tested on: Human immunodeficiency virus 1; assay: Antiviral activity against NNRTI resistant HIV1 harboring Tyr188Leu mutant infected in human MT4 cells assessed as reduction in virus-induced cytopathic effect measured after 5 days by MTT assay; format: functional, organism-based; settings: Human immunodeficiency virus 1, MT4, 120 h
[5] = tested on: Human immunodeficiency virus 1; assay: Antiviral activity against NNRTI resistant HIV1 LAI infected in human MT4 cells assessed as reduction in virus-induced cytopathic effect measured after 5 days by MTT assay; format: functional, organism-based; settings: Human immunodeficiency virus 1, LAI, MT4, 120 h
[6] = molecular target: T1, Equilibrative nucleoside transporter 1 (Homo sapiens, UniProt Q99808); assay: Inhibition of human ENT1 transfected in nucleoside transporter-deficient pig PK-15 cells assessed as inhibition of [3H]-adenosine uptake by liquid scintillation counter analysis; format: cell-based
T1 sequence (Q99808 whole entry): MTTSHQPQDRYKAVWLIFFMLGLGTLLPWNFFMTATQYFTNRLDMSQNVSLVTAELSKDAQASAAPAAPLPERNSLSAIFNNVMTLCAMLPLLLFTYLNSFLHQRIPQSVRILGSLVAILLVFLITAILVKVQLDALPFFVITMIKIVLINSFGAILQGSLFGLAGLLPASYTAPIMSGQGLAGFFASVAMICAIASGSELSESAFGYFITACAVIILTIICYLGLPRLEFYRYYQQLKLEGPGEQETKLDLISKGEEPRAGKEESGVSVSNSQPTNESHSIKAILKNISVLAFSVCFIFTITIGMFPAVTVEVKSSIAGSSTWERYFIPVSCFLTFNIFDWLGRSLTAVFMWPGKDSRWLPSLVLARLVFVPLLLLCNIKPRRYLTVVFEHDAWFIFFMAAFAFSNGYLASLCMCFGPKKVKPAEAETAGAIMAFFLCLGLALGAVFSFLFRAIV

[7] = molecular target: T2, Equilibrative nucleoside transporter 2 (Homo sapiens, UniProt Q14542); assay: Inhibition of human ENT2 transfected in nucleoside transporter-deficient pig PK-15 cells assessed as inhibition of [3H]-adenosine uptake by liquid scintillation counter analysis; format: cell-based
T2 sequence (Q14542 whole entry): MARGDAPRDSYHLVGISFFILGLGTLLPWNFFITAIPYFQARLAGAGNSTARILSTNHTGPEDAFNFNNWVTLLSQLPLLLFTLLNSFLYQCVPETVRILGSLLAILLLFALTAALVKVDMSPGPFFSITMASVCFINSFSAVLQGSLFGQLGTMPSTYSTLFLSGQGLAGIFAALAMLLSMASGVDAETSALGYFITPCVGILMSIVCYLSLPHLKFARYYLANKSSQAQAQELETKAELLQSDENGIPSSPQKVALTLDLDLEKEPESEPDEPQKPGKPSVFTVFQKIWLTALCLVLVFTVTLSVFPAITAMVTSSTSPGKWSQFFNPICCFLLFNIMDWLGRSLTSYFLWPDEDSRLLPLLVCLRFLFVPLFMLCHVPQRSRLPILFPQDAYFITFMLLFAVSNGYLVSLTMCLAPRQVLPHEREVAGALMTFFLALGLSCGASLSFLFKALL

[8] = molecular target: T1, Equilibrative nucleoside transporter 1; assay: Inhibition of human ENT1 transfected in nucleoside transporter-deficient pig PK-15 cells assessed as inhibition of [3H]-uridine uptake by liquid scintillation counter analysis; format: cell-based
[9] = molecular target: T2, Equilibrative nucleoside transporter 2; assay: Inhibition of human ENT2 transfected in nucleoside transporter-deficient pig PK-15 cells assessed as inhibition of [3H]-uridine uptake by liquid scintillation counter analysis; format: cell-based
[10] = molecular target: 1-acyl-sn-glycerol-3-phosphate acyltransferase beta (Homo sapiens, UniProt O15120); assay: Inhibition of LPAAT-beta (unknown origin) expressed in Xenopus laevis oocytes incubated for 3 mins; format: cell-based, Oocyte
Sequence of 1-acyl-sn-glycerol-3-phosphate acyltransferase beta (O15120 whole entry): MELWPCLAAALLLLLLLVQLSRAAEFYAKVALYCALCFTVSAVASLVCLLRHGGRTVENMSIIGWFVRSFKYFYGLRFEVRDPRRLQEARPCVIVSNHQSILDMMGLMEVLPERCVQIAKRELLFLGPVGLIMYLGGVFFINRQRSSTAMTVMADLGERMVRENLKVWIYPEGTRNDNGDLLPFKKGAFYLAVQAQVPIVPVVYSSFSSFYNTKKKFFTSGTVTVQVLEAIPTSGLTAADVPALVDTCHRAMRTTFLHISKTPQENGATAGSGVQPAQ

HeLa = assay: Cytotoxicity against human HeLa cells assessed as cell growth inhibition incubated for 96 hrs by WST-8 assay; format: functional, cell-based
[11] = Cytotoxicity against human HCO cell assessed as cell growth inhibition incubated for 96 hrs by WST-8 assay; format: functional, cell-based
HEK293 = assay: Cytotoxicity against HEK293 cells assessed as cell growth inhibition incubated for 96 hrs by WST-8 assay; format: functional, cell-based; settings: Homo sapiens, HEK293, 96 h
MEF = assay: Cytotoxicity against mouse MEF cells assessed as cell growth inhibition incubated for 96 hrs by WST-8 assay; format: functional, cell-based
SK-OV-3 [12] = assay: Cytotoxicity against human SK-OV-3 cells assessed as cell growth inhibition incubated for 96 hrs by WST-8 assay; format: functional, cell-based; settings: SK-OV-3, 96 h
NADPH oxidase 1 = NADPH oxidase 1 (Homo sapiens, UniProt Q9Y5S8); assay: Inhibition of human NOX1
Sequence of NADPH oxidase 1 (Q9Y5S8 whole entry): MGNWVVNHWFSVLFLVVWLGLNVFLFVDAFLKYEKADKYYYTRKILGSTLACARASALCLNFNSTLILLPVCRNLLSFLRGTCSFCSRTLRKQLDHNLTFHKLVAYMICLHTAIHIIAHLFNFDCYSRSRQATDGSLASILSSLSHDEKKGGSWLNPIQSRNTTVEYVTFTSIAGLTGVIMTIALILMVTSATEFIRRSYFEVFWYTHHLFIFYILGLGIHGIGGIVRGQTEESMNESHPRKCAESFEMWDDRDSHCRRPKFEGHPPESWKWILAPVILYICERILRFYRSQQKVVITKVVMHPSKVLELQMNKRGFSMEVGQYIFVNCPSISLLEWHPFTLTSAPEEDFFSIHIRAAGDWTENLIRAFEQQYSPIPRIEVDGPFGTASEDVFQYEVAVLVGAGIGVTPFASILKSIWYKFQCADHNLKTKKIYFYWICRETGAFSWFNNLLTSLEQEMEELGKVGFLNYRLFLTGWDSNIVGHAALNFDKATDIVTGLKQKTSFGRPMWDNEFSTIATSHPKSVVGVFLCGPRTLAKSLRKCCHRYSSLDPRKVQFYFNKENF

NADPH oxidase 2 = NADPH oxidase 2 (Homo sapiens, UniProt P04839); assay: Inhibition of human NOX2
Sequence of NADPH oxidase 2 (P04839 whole entry): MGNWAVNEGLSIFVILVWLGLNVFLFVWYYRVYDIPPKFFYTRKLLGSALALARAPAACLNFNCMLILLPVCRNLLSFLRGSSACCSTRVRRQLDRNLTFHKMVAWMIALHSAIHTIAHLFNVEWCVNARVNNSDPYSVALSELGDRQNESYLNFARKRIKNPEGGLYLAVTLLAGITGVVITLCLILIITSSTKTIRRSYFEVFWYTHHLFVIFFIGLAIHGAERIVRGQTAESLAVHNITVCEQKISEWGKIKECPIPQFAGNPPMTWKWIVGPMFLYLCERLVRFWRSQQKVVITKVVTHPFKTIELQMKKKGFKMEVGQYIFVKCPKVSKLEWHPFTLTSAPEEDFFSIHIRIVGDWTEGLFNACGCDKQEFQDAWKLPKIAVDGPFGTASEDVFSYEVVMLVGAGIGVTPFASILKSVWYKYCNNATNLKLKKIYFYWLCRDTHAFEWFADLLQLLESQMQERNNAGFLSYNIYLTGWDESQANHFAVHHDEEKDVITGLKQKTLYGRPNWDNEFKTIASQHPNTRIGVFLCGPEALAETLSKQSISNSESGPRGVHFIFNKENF

NADPH oxidase 3 = NADPH oxidase 3 (Homo sapiens, UniProt Q9HBY0); assay: Inhibition of human NOX3
Sequence of NADPH oxidase 3 (Q9HBY0 whole entry): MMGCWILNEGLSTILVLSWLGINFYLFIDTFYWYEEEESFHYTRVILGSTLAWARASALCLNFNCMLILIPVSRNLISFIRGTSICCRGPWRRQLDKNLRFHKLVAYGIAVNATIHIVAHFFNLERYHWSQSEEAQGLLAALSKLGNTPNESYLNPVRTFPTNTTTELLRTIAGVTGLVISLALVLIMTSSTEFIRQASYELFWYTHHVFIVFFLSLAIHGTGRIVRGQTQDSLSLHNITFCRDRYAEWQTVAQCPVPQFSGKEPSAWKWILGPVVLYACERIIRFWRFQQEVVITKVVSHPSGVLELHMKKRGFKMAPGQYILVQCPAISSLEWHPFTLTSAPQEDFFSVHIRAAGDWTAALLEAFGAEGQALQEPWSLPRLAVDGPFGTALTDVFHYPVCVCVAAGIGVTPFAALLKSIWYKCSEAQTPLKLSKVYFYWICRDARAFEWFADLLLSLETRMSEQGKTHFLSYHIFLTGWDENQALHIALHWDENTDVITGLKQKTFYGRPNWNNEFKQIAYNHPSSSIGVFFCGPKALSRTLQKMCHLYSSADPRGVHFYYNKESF

[13] = molecular target: T3, 5-hydroxytryptamine receptor 6 (Homo sapiens, UniProt P50406); assay: Displacement of [3H]-LSD from human 5-HT6R expressed in HEK293 cells by radioligand binding assay; format: cell-based
T3 sequence (P50406 whole entry): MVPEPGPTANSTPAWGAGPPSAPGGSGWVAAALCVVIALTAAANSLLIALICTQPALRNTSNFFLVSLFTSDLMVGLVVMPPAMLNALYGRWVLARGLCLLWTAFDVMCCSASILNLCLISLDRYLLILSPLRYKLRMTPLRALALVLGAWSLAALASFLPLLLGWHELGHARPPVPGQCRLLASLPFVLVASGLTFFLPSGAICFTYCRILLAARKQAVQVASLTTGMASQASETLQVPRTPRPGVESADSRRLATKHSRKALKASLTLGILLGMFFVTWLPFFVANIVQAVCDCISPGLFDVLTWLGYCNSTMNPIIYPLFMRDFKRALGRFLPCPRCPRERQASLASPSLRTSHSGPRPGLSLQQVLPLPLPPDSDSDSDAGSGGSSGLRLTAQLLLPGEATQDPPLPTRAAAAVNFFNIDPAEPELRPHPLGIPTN

[14] = molecular target: 5-hydroxytryptamine receptor 1A (Homo sapiens, UniProt P08908); assay: Displacement of […] from human 5-HT1AR expressed in HEK293 cells by radioligand binding assay; format: cell-based
Sequence of 5-hydroxytryptamine receptor 1A (P08908 whole entry): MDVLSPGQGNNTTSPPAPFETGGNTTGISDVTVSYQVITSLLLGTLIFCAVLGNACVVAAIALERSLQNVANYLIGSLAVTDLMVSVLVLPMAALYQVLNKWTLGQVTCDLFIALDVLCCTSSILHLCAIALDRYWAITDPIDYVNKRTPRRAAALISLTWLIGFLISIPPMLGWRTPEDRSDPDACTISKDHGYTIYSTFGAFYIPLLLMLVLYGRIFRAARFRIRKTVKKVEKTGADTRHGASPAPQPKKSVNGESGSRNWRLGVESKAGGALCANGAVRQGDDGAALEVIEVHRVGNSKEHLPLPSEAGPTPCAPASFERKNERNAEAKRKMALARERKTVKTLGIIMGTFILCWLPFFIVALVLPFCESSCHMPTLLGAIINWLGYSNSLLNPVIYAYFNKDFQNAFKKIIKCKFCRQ

[15] = molecular target: 5-hydroxytryptamine receptor 7 (Homo sapiens, UniProt P34969); assay: Displacement of [3H]-5Carboxyamidotryptamine from human 5-HT7R expressed in HEK293 cells by radioligand binding assay; format: cell-based
Sequence of 5-hydroxytryptamine receptor 7 (P34969 whole entry): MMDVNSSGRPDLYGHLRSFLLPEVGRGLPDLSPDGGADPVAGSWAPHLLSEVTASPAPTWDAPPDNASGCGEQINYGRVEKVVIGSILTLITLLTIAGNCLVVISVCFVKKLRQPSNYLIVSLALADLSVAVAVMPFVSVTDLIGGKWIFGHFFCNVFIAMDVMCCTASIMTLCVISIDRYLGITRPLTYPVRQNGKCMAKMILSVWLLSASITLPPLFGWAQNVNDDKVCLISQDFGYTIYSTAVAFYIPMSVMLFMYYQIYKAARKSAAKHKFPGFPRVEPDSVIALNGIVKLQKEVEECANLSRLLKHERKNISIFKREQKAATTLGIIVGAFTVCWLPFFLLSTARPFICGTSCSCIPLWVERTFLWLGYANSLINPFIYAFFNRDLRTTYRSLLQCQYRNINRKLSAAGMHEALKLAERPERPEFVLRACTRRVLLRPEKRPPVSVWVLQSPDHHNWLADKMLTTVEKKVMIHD

D(2) dopamine receptor = D(2) dopamine receptor (Homo sapiens, UniProt P14416); assay: Displacement of [3H]-Raclopride from human dopamine D2 receptor expressed in HEK293 cells by radioligand binding assay; format: cell-based
Sequence of D(2) dopamine receptor (P14416 whole entry): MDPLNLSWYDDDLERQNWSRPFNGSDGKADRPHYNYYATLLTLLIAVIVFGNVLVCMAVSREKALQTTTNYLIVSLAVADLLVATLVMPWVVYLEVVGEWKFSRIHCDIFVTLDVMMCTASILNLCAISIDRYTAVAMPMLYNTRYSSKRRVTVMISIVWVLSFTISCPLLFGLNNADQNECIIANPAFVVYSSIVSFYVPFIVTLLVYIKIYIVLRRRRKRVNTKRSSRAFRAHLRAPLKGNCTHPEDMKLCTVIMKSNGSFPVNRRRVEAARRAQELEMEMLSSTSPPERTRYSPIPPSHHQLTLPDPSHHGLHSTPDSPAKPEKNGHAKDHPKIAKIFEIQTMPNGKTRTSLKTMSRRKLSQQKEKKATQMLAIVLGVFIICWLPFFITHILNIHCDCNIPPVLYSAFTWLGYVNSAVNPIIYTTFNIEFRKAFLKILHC

[16] = molecular target: T3, 5-hydroxytryptamine receptor 6; assay: Displacement of [3H]-LSD from human 5-HT6R expressed in HEK293 cells assessed as binding constant by radioligand binding assay; format: cell-based
A-427 = assay: Cytotoxicity against human A-427 cells assessed as cell growth inhibition measured after 96 hrs by microplate reader analysis; format: functional, cell-based; settings: A-427, 96 h
DAN-G = assay: Cytotoxicity against human DAN-G cells assessed as cell growth inhibition measured after 96 hrs by microplate reader analysis; format: functional, cell-based
LCLC = assay: Cytotoxicity against human LCLC cells assessed as cell growth inhibition measured after 96 hrs by microplate reader analysis; format: functional, cell-based
SISO = assay: Cytotoxicity against human SISO cells assessed as cell growth inhibition measured after 96 hrs by microplate reader analysis; format: functional, cell-based
RT-4 = assay: Cytotoxicity against human RT-4 cells assessed as cell growth inhibition measured after 96 hrs by microplate reader analysis; format: functional, cell-based; settings: RT-4, 96 h
MDA-MB-231 = assay: Antiproliferative activity against human MDA-MB-231 cells assessed as cell growth inhibition measured after 72 hrs by MTT assay; format: functional, cell-based; settings: MDA-MB-231, 72 h
SK-BR-3 = assay: Antiproliferative activity against human SK-BR-3 cells assessed as cell growth inhibition measured after 72 hrs by MTT assay; format: functional, cell-based; settings: SK-BR-3, 72 h
MCF7 [17] = assay: Antiproliferative activity against human MCF7 cells assessed as cell growth inhibition measured after 72 hrs by MTT assay; format: functional, cell-based; settings: MCF7, 72 h
MCF-10A = assay: Antiproliferative activity against human MCF-10A cells assessed as cell growth inhibition measured after 72 hrs by MTT assay; format: functional, cell-based
[18] = Cytotoxicity against human IM-9 cells assessed as cell growth inhibition; format: toxicity, cell-based
Jurkat = assay: Cytotoxicity against human Jurkat cells assessed as cell growth inhibition; format: functional, cell-based
Daudi = assay: Cytotoxicity against human Daudi cells assessed as cell growth inhibition; format: functional, cell-based
HL-60 = assay: Cytotoxicity against human HL-60 cells assessed as cell growth inhibition; format: functional, cell-based
MCF7 [19] = assay: Cytotoxicity against human MCF7 cells assessed as cell growth inhibition; format: functional, cell-based
DU-145 = assay: Cytotoxicity against human DU-145 cells assessed as cell growth inhibition; format: functional, cell-based
[20] = Cytotoxicity against mouse LL2 cells assessed as cell growth inhibition; format: functional, cell-based; settings: Lewis lung carcinoma
SK-OV-3 [21] = assay: Cytotoxicity against human SK-OV-3 cells assessed as cell growth inhibition; format: functional, cell-based
[22] = Cytotoxicity against human MHOC-59 cell assessed as cell growth inhibition; format: functional, cell-based
AN3-CA = assay: Cytotoxicity against human AN3-CA cells assessed as cell growth inhibition; format: functional, cell-based
HEC-1-A = assay: Cytotoxicity against human HEC-1-A cells assessed as cell growth inhibition; format: functional, cell-based
K562 = assay: cells; settings: Homo sapiens
Description: Cytotoxicity against human K562 cells assessed as cell growth inhibition

[23] = Cytotoxicity against […] cells assessed as cell growth inhibition measured after 72 hrs by CellTiter-Glo assay; format: functional, cell-based; settings: Hepa1-6, 72 h
[24] = Cytotoxicity against human Hepa 1-6/R cells assessed as cell growth inhibition measured after 72 hrs by CellTiter-Glo assay; format: functional, cell-based

IC50 [6]: 19400 nM
IC50 [7]: 4360 nM
IC50 [8]: 18000 nM
IC50 [9]: 1690 nM
SMILES: Nc1nc(CN2CCN(c3ccccc3F)CC2)nc(Nc2cccc3ccccc23)n1

IC50 (NADPH oxidase 1): > 10000 nM
IC50 (NADPH oxidase 2): 1250 nM
IC50 (NADPH oxidase 3): 1250 nM
SMILES: COc1cccc(N2CCN(Cc3nc(N)nc(Nc4ccc(C)c(C)c4)n3)CC2)c1

IC50 (MDA-MB-231): 1 nM
IC50 (SK-BR-3): 210 nM
IC50 (MCF7 [17]): > 20000 nM
SMILES: COc1cc(-c2nc(N)nc(Nc3ccc(C)cc3)n2)cc(OC)c1OC
IC50 (MCF-10A): > 20000 nM

Continued, compound first:

SMILES: Cc1cc(C)c(Cc2nc(N)nc(Nc3ccc(C#N)cc3)n2)c(C)c1
IC50 [1]: 82 nM
IC50 [2]: 3 nM
IC50 [3]: 15 nM
IC50 [4]: 45 nM
IC50 [5]: 0.8 nM

SMILES: CCc1c(-c2nc(N)nc(Nc3ccc(C)cc3)n2)oc2ccccc12
IC50 [10]: 8.4 nM
IC50 (HeLa): 140 nM
IC50 [11]: 102 nM
IC50 (HEK293): 51 nM
IC50 (MEF): 62 nM
IC50 (SK-OV-3 [12]): 179 nM

SMILES: CC(Oc1ccccc1Cl)c1nc(N)nc(N2CCN(C)CC2)n1 (configuration not stated)
Ki [13]: 28 nM

SMILES: CN1CCN(c2nc(N)nc(Cc3c[nH]c4ccccc34)n2)CC1
Ki [14]: 9450 nM
Ki [15]: 16800 nM
Ki (D(2) dopamine receptor): 1950 nM
Kb [16]: 18 nM

SMILES: CCN(CC)c1ccc2cc(-c3nc(N)nc(N4CCN(c5ccccc5)CC4)n3)c(=N)oc2c1
IC50 (A-427): 1510 nM
IC50 (DAN-G): 2140 nM
IC50 (LCLC): 2210 nM
IC50 (SISO): 2600 nM
IC50 (RT-4): 1660 nM

SMILES: CCc1ccc(Nc2nc(N)nc(-c3oc4ccccc4c3C)n2)cc1
IC50 [10]: 15 nM
IC50 (HeLa): 111 nM
IC50 [11]: 63 nM
IC50 (HEK293): 25 nM
IC50 (MEF): 48 nM
IC50 (SK-OV-3 [12]): 79 nM

SMILES: CCOc1ccc(Cl)cc1-c1nc(N)nc(Nc2ccc(Cl)cc2)n1
IC50 [18]: 20 nM
IC50 (Jurkat): 30 nM
IC50 (Daudi): 10 nM
IC50 (HL-60): 30 nM
IC50 (MCF7 [19]): 50 nM
IC50 (DU-145): 30 nM
IC50 [20]: 20 nM
IC50 (SK-OV-3 [21]): 32 nM
IC50 [22]: 80 nM
IC50 (AN3-CA): 33 nM
IC50 (HEC-1-A): 54 nM
IC50 (K562): 30 nM

SMILES: C[C@H](CCc1nc(N)nc(N(C)C)n1)[C@H]1CC[C@H]2[C@@H]3[C@@H](O)C[C@@H]4C[C@H](O)CC[C@]4(C)[C@H]3CC[C@]12C
IC50 [23]: 28600 nM
IC50 [24]: 30300 nM

— ChEMBL document CHEMBL5214932, “A closer look at N2,6-substituted 1,3,5-triazine-2,4-diamines: Advances in synthesis and biological activities” (Eur J Med Chem, 2022)
